Assay results reported in patent US20070077283A1, “METHOD OF ENHANCING TRANSMUCOSAL DELIVERY OF THERAPEUTIC COMPOUNDS” (Nastech Pharmaceutical Company Inc., priority 2005, published 2007).

Columns and labels:
[1] = test system: human-derived tracheal/bronchial epithelial cells (EpiAirway Tissue Model); assay: FITC-Dextran permeation assay across epithelial cell monolayer; type: cell-based; conditions: for Mean % FD3 Permeation: FITC-dextran 3000 (Table 4)
Experimental: Each tissue insert was placed in an individual well containing 1 ml of MatTek basal media. On the apical surface of the inserts, 20 μl of test formulation was applied according to study design, and the samples were placed on a shaker (˜100 rpm) for 1.5 hours at 37° C. FITC-labeled dextran solution was added to inserts apically and a fluorescence measurement was taken from the basolateral media after the incubation period. Two hundred microliters of the basal media for each test formulation was transferred to a dark-wall fluorescent reading plate. Each test formulation was tested in triplicate. Fluorescent intensity was measured at 470 nM with the microplate fluorescence reader FLx800 (Bio-Tek Instruments, Inc., Winooski, Vt.). A FITC labeled dextran with a molecular weight of 3 kDA, 10 kDA, 20 kDA, 40 kDA, 70 kDA and/or 500 kDA was used to assess the ability of individual lipids to deliver a model protein across an epithelia.
(§1) Permeation is expressed as percent permeation and was calculated as follows: [formula] [formula] Terms
PBS and 0.3% Triton-X100™ served as […]. […] FD permeation was presented as the percent of FD that crossed from the apical side of the epithelial cell monolayer to the basolateral cell surface.

[2] = test system: human-derived tracheal/bronchial epithelial cells (EpiAirway Tissue Model); assay: Cell viability (MTT assay); type: cell-based
Experimental: Cell viability will be assessed using the MTT assay (MTT-100, MatTek kit). This kit measures the uptake and transformation of tetrazolium salt to formazan dye. Thawed and diluted MTT concentrate is prepared 1 hour prior to the end of the dosing period with the lipid by mixing 2 mL of MTT concentrate with 8 mL of MTT diluent. Each cell culture insert is washed twice with PBS containing Ca^+2 and Mg^+2 and then transferred to a new 96-well transport plate containing 100 μL of the mixed MTT solution per well. This 96-well transport plate is then incubated for three hours at 37° C. and 5% CO2. After the three hour incubation, the MTT solution is removed and the cultures are transferred to a second 96-well feeder tray containing 250 μL MTT extractant solution per well. An additional 150 μL of MTT extractan solution was added to the surface of each culture well and the samples sat at room temperature in the dark for a minimum of two hours and maximum of 24 hours. The insert membrane was then pierced with a pipet tip and the solutions in the upper and lower wells were allowed to mix. Two hundred microliters of the mixed extracted solution along with extracted blanks (negative control) was transferred to a 96-well plate for measurement with a microplate reader. The optical density (OD) of the samples was measured at 570 nm with the background subtraction at 650 nm on a plate reader. Cell viability was expressed as a percentage and calculated by dividing the OD readings for treated inserts by the OD readings for the PBS treated inserts and multiplying by 100. For the purposes of this assay, it was assumed that PBS had no effect on cell viability and therefore represented 100% cell viability.

[3] = test system: human-derived tracheal/bronchial epithelial cells (EpiAirway Tissue Model); assay: Transepithelial electrical resistance (TER) of an epithelial cell monolayer; type: cell-based
Experimental: Inserts are feed for each day of recovery. TER measurements were accomplished using the Endohm-12 Tissue Resistance Measurement Chamber connected to the EVOM Epithelial Voltohmmeter (World Precision Instruments, Sarasota, Fla.) with the electrode leads. The electrodes and a tissue culture blank insert were equilibrated for at least 20 minutes in MatTek medium with the power off prior to checking calibration. The background resistance was measured with 1.5 ml media in the Endohm tissue chamber and 300 μl media in the blank insert. The top electrode was adjusted so that it was close to, but not making contact with, the top surface of the insert membrane. Background resistance of the blank insert was about 5-20 ohms. […] TER values are a function of the surface area of the tissue. […] By this method of calculation, TER will be expressed as both Ohms*cm2 and percent original TER value. […] Several different lipid types (see Table 1) were screened to select for lipids that are capable of enhancing the permeation of a biological agent across an epithelial cell monolayer. […] A reduction in TER correlates with the ability to enhance the permeation of a molecule and biological agent across an epithelia.

[4] = test system: human-derived tracheal/bronchial epithelial cells (EpiAirway Tissue Model); assay: Peptide YY (PYY) permeation across epithelial cell monolayer; type: cell-based
Experimental: as §1
In the instant example, the ability of permeation enhancing lipids to enhance the permeation of the biological agent, peptide YY (PYY; molecular weight of 3.7 kDa) across the epithelial cell monolayer model system (EpiAirway™) was measured. Also, the efficacy of a permeation enhancing lipid to enhance the permeation of insulin across and epithelial cell layer was measured. Refer to Example 2 of the instant application for general protocol details.

[5] = test system: human-derived tracheal/bronchial epithelial cells (EpiAirway Tissue Model); assay: TER recovery / TER time course; type: cell-based; conditions: lipids 500 μM, PN159 25 μM
Experimental: TER recovery was calculated as described in the above paragraph.
Reversibility is a critical factor in selecting epithelial cell permeabiling enhancers since the barrier function of the epithelial cells serves as the first line of defense against pathogens and the entrance of toxins into the body. The permeation enhancing lipids C16 PAF; C18 PAF; C16 Enantiomeric PAF; POVPC; C16-04: 1 PC and PGPC were incubated with a monolayer of human-derived tracheal/bronchial epithelial cells (EpiAirway™ Model System) and TER […] The lipid glucosyl sphingosine was also tested. Each permeation enhancing lipid (except PGPC) was applied at a concentration of 1000 μM for 15, 30 and 60 minutes. The permeation enhancing lipid PGPC and the lipid glucosyl sphingosine were applied at a concentration of 500 μM for 1, 3, 5, 30 and 60 minutes. TER measurements were taken immediately after each application to determine how quickly each lipid could reduce TER.
[…] […] PBS served as a negative control and Triton-X100™ served as a positive control.
To asses how quickly the cells recovered after application and removal of the permeation enhancing lipid PGPC and the lipid glucosyl sphingosine, TER measurements were taken at 1, 3, 5, 7, and 9 hours post-treamtnet for each of the prior mentioned timed treatments (i.e., 1, 3, 5, 15, 30 and 60 minutes). TER recovery measures the reversibility of the lipid mediated effect on an epithelia. […] Hyptonic PBS served as a negative control for TER reduction and TER recovery.

[6] = test system: human-derived tracheal/bronchial epithelial cells (EpiAirway Tissue Model); assay: in vitro
Experimental: Normal, human-derived tracheal/bronchial epithelial cells will serve as the model cell system for assessing the lipids listed in Table 1. The cells are supplied by MatTek Corp. (Ashland, Mass.) as the EpiAirway™ Tissue Model. The cells are provided as a confluent monolayer on a Millipore Milicell-CM cell culture insert with a pore size of 0.4 μM, inner diameter of 0.8 cm and surface area of 0.6 cm^2 and comprised of transparent hydrophilic Teflon (PTFE). Upon receipt, the membranes are cultured in 1 ml basal media (phenol red-free and hydrocortisone-free Dulbecco's Modified Eagle's Media (DMEM) at 37° C./5% CO2 for 24-48 hours before use. Inserts are feed for each day of recovery.
The amount of cell death was assayed by measuring the loss of lactate dehydrogenase (LDH) from the cells using a CytoTox 96 Cytotoxicity Assay Kit (Promega Corp., Madison, Wis.). A treatment of 1% Octylphenolpoly(ethyleneglycolether)x (Triton X-100™) diluted in PBS was used as a lysis control. One percent Triton X-100™ mediated cell lysis was normalized to 100%. For basal-lateral LDH levels, triplicates of 50 μl of the basal media were loaded into a 96-well assay plate. For apical LDH levels, 150 μl of Epi-Cm was added to the apical side of each chamber and mixed by pipeting. One hundred and fifty microliters was then removed and diluted 2-fold prior to performing the LDH assay. All apical LDH assay were performed in triplicate and with 50 μl of the diluted test solution. Fresh, cell-free culture medium will be used as a blank. Total LDH levels were determined by lysing cells in a final concentration of 0.9% Triton-X100™. Fifty microliters of substrate solution was added to each well and the plates incubated for 30 minutes at room temperature in the dark. Following incubation, 50 μl of stop solution was added to each well and the plates read on an optical density plate reader at […]. Cytotoxicity was expressed as a percentage calculated by subtracting the average absorbance of the PBS control wells as the endogenously released LDH level and expressing that value relative to the average Triton-X100 control, which represents total LDH content. [formula] Osmolality
For the instant application, phosphate buffered saline (PBS) served as a negative control for both the TER assay and LDH (cytotoxicity) assay. […] TER measurements and LDH levels were taken immediately after a one hour treatment of the cultured cells with each lipid, unless specified otherwrise.
TER reduction was expressed as the percent decrease in TER value from time zero to one hour post-treatment. Thus, greater percent reduction in TER represents less electrical resistance across the epithelial cell monolayer and consequently greater epithelial cell permeation. Cytotoxicity (LDH levels) for each lipid was expressed as a percent of the LDH levels measured after Triton-X100 treatment of the cells. Triton-X100™ LDH levels were normalized to 100%.

[7] = test system: ciliary function in epithelial cell cultures; conditions: Hingley et al. 1986; cited from earlier work
[8] = lipid 500 μM / PYY 13.67 mg/mL (High)
[9] = lipid / PYY 10 mg/mL, listed as PAF-antangonist

In the case of `CCCCCCCCCCCCC/C=C/[C@@H](O)[C@@H](N)CO[C@@H]1O[C@H](CO)[C@@H](O)[C@H](O)[C@H]1O` [Glucosyl-sphingosine, D-Glucosyl-β1-1′-D-erythro-Sphingosine], the “% FITC-Dextran Permeation FD3” value ([1]; lipid 500 μM (Table 5)) is reported as 4%, the “MTT levels (cell viability)” value ([2]; compared with PBS negative control (Example 5)) is reported as “MTT levels comparable to that of the PBS negative control” and the “% Cell Viability” value [2, 8] is reported as 109%. The “% Original TER” value ([3]; lipid 500 μM / PYY 13.67 mg/mL (High), listed as Glucosyl Sphingosine) was 12%, the “% Original TER” value ([3]; lipid 500 μM / PYY 13.67 mg/mL (High), listed as glucosyl sphingosine) was “reduced TER to levels equivalent of PN159” and the “% PYY Permeation” value [4, 8] was 1.17%. For the same compound, the “time to full TER recovery (PBS control levels)” value ([5]; after 1, 3, 5, 15 and 30 minute treatments) was “fully recovered within one hour” and the “time to full TER recovery (PBS control levels)” value ([5]; after 60 minute treatment) was “did not reach PBS TER control levels until three hours post-treatment”.

In the case of `CCCCCCCCCCCCCCCCOC[C@H](COP(=O)([O-])OCCCCCC[N+](C)(C)C)OC(C)=O` [PAF-antagonist, 1-O-Hexadecyl-2-O-Acetyl-sn-Glycero-3-Phospho(N,N,N-trimethyl) Hexanolamine], the “Mean % FD3 Permeation” value ([1]; lipid 500 μM) is reported as 6%, the “% FITC-Dextran Permeation FD10” value ([1]; lipid 1000 μM) is reported as 5% and the “% FITC-Dextran Permeation FD40” value ([1]; lipid 1000 μM) is reported as 2%. For the same compound, the “% FITC-Dextran Permeation FD3” value ([1]; lipid 1000 μM (Table 5)) was 11%, the “Mean % FD3 Permeation” value ([1]; lipid 1000 μM) was 11% and the “permeation of FD3 relative to negative controls” value ([1]; text summary of Table 4) was “enhanced the permeation of FD3 above that of the negative controls”. For the same compound, the “Mean % Relative Cytotoxic Effect (LDH)” value ([6]; lipid 500 μM (Table 4)) was 8%, the “Mean % Relative Cytotoxic Effect (LDH)” value ([6]; lipid 1000 μM (Table 4)) was 10% and the “Mean % of Original TER Value” ([3]; lipid 500 μM (Table 4)) was 20%. For the same compound, the “Mean % of Original TER Value” ([3]; lipid 1000 μM, lower value = greater TER reduction (Table 4)) was 9%, the “% Original TER” value ([3]; lipid / PYY 10 mg/mL) was “reduced TER below that of the positive control PN159 and equivalent to the positive control Special Sauce” and the “% Original TER” value [3, 9] was 2%. For the same compound, the “% PYY Permeation” value ([4]; lipid / PYY 10 mg/mL) was “enhanced permeation of PYY equivalent to or above the positive control PN159” and the “% PYY Permeation” value [4, 9] was 2.4%.

In the case of “2-alkyl-4-hydroxyquinolines [pyo compound]”, the “concentration producing ciliostasis / inhibiting ciliary motility” value [7] is given as 50 µg/mL.

For rhamnolipid, the “effect of limited exposure of tracheal explants” value [7] is given as “ciliostasis”.
